Molecules are shown by their SMILES. Calls of active or inactive are those of the source. The rule behind the calls is not given here.

Results on 27 compounds are retold here after ChEMBL document CHEMBL5537113, “Discovery of 1,2-diaryl-3-oxopyrazolidin-4-carboxamides as a new class of MurA enzyme inhibitors and characterization of their antibacterial activity” (Eur J Med Chem, 2023).

The test system of series [1] is Staphylococcus aureus. Briefly: Antibacterial activity against Staphylococcus aureus Newman D2C NCTC 10833 assessed as reduction in microbial growth incubated for 16 hrs by serial dilution method. Type of series: functional.
Series [2] deals with UDP-N-acetylglucosamine 1-carboxyvinyltransferase (Escherichia coli K-12) (UniProt P0A749). Nature of the series: Inhibition of Escherichia coli K12 His-tagged MurA expressed in Escherichia coli BL21 cells at 50 uM using UNAG as substrate pre incubated for 15 mins followed by substrate addition and measured after 15 mins by microplate reader analysis relative to control. The following applies: time 30.0 min.

The target in series [3] is UDP-N-acetylglucosamine 1-carboxyvinyltransferase (Escherichia coli K-12, UniProt P0A749). Briefly: Inhibition of Escherichia coli K12 His-tagged MurA expressed in Escherichia coli BL21 cells using UNAG as substrate pre incubated for 15 mins followed by substrate addition and measured after 15 mins by microplate reader analysis.
In series [4] the test system is Escherichia coli. Nature of the series: Antibacterial activity against Escherichia coli harboring tolC deletion mutant assessed as reduction in microbial growth incubated for 16 hrs by serial dilution method. It is filed as functional.
Series [5] concerns Staphylococcus aureus. Nature of the series: Antibacterial activity against vancomycin resistant Staphylococcus aureus 10 assessed as reduction in microbial growth by CLSI based broth microdilution method. Type of series: functional.
In series [6] the test system is Clostridioides difficile. Briefly: Antibacterial activity against Clostridioides difficile ATCC BAA1870 assessed as reduction in microbial growth incubated for 48 hrs by broth microdilution method. Type of series: functional.
The subject of series [7] is Staphylococcus aureus. Briefly: Antibacterial activity against methicillin resistant Staphylococcus aureus NRS119 assessed as reduction in microbial growth by CLSI based broth microdilution method. Type of series: functional.
Series [8] deals with Staphylococcus aureus. Nature of the series: Antibacterial activity against methicillin sensitive Staphylococcus aureus NRS107 assessed as reduction in microbial growth by CLSI based broth microdilution method. Type of series: functional.
For series [9], the system named is Staphylococcus aureus. Briefly: Antibacterial activity against methicillin resistant Staphylococcus aureus USA300 assessed as reduction in microbial growth by CLSI based broth microdilution method. Type of series: functional.
Series [10] can be described thus: Drug uptake in Escherichia coli harboring tolC deletion mutant assessed per 1.6x10^9 cells at 10 uM incubated for 30 mins by LC analysis. The following applies: 0.5 h. Type of series: ADME.
A short description of series [11]: Drug uptake in Escherichia coli harboring tolC deletion mutant at 10 uM incubated for 30 mins by LC analysis. It is filed as ADME. The following applies: 0.5 h.

Sequence of UDP-N-acetylglucosamine 1-carboxyvinyltransferase (P0A749 whole entry): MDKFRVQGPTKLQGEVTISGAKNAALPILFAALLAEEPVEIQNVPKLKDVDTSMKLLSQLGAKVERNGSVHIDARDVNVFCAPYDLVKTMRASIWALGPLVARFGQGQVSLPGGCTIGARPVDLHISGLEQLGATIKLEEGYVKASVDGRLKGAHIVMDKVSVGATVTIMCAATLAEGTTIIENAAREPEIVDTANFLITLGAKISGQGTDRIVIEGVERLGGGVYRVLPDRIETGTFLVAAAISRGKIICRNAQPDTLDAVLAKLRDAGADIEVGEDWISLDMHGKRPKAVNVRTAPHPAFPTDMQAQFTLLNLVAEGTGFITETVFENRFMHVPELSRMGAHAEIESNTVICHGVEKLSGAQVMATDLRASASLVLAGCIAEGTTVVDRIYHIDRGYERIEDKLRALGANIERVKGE
Sequence of UDP-N-acetylglucosamine 1-carboxyvinyltransferase (Escherichia coli K-12) (P0A749 whole entry): as above

Regarding `O=C(Nc1ncc(Cl)s1)C1CN(c2cccc(Cl)c2)N(c2cccc(Cl)c2)C1=O` (stereo not given), the MIC in series [1] and in [4] was over 40 µM throughout. For the same compound, the inhibition in series [2] stood at 67.7%. In addition, the IC50 in series [3] was 24 µM.

As for `O=C(Nc1ccc2[nH]ncc2c1)C1CN(c2cccc(Cl)c2)N(c2cccc(Cl)c2)C1=O` (stereo not given), the MIC was over 40 µM in [1] and 23 µM in [4]. For the same compound, the inhibition in [2] came to 59.5%. The IC50 in series [3] came to 44.1 µM.

With `O=C(Nc1cncc(Cl)c1)C1CN(c2cccc(Cl)c2)N(c2cccc(Cl)c2)C1=O` (stereo not given), the MIC in series [1] and in [4] was over 40 µM in each case. In addition, the inhibition in series [2] worked out at 18.2%.

As for `O=C(Nc1ccc2[nH]cnc2c1)C1CN(c2cccc(Cl)c2)N(c2cccc(Cl)c2)C1=O` (stereo not given), the MIC in [1] was over 40 µM; in [4] it was 18 µM. In series [2], this compound registered an inhibition of 74.2%. The IC50 in series [3] came out at 33.5 µM.

Consider `O=C(NCc1ccncc1)C1CN(c2cccc(Cl)c2)N(c2cccc(Cl)c2)C1=O` (stereo not given), for which the MIC in series [1] and in series [4] was over 40 µM throughout. The inhibition result in series [2] was “inactive”.

For `CC(=O)NC[C@H]1CN(c2ccc(N3CCOCC3)c(F)c2)C(=O)O1` [LINEZOLID], the MIC was determined as 0.5 µg/mL in [5]; 1 µg/mL in series [6]; 32 µg/mL in series [7]; 0.5 µg/mL in series [8]; 1 µg/mL in series [9].

For the compound `CN1C(=O)C(C(=O)Nc2ncc(C#N)s2)CN1c1cccc(Cl)c1` (stereo not given), the MIC in [1] and in [4] was over 40 µM throughout. Also, the inhibition result in [2] was “inactive”.

As to `CN1C(=O)C(C(=O)NC2CCSC2=O)CN1c1cccc(Cl)c1` (stereo not given), the MIC in [1] and in series [4] was over 40 µM each time. Also, in series [2], the inhibition entry was “inactive”.

For the compound `O=C(Nc1nc2ccccc2s1)C1CN(c2cccc(Cl)c2)N(c2cccc(Cl)c2)C1=O` (stereo not given), the Drug uptake came out at 19 µM in [10] and 573 nM in [11]. The MIC in series [1] and in series [4] was over 40 µM in each case. The same compound showed an inhibition in series [2] of 65.2%. For the same compound, in series [3], the IC50 came out at 18 µM.

Regarding `O=C(Nc1ccc2cn[nH]c2c1)C1CN(c2cccc(Cl)c2)N(c2cccc(Cl)c2)C1=O` (stereo not given), the MIC in series [1] was over 40 µM; in series [4], 20 µM. Moreover, in series [2], the inhibition is 65.2%. This compound came in with an IC50 in [3] of 35.4 µM.

Take `Cc1csc(NC(=O)C2CN(c3cccc(Cl)c3)N(c3cccc(Cl)c3)C2=O)n1` (stereo not given): the MIC in [1] was over 40 µM; in [4], 40 µM. Moreover, the inhibition in series [2] is 60.2%. Besides, in series [3], the IC50 was 39.3 µM.

Regarding `O=C(Nc1cccc(-c2cn[nH]c2)c1)C1CN(c2cccc(Cl)c2)N(c2cccc(Cl)c2)C1=O` (stereo not given), the MIC in series [1] and in [4] was over 40 µM throughout. Moreover, in series [2], the inhibition was found to be 60.4%. This compound displayed an IC50 in [3] of 31 µM.

Take `O=C(NCc1cccnc1)C1CN(c2cccc(Cl)c2)N(c2cccc(Cl)c2)C1=O` (stereo not given): the MIC in series [1] and in [4] was over 40 µM in each case. The same compound gave an inhibition in series [2] of 11.8%.

For the compound `O=C(Nc1nc(C(F)(F)F)cs1)C1CN(c2cccc(Cl)c2)N(c2cccc(Cl)c2)C1=O` (stereo not given), the MIC in [1] is 40 µM; in [4], over 40 µM. Besides, the inhibition in series [2] came to 59.2%. In addition, in series [3], the IC50 worked out at 38.6 µM.

With `CSc1nnc(NC(=O)C2CN(c3cccc(Cl)c3)N(c3cccc(Cl)c3)C2=O)s1` (stereo not given), the minimum inhibitory concentration (MIC) in series [1] is over 40 µM; in series [4] it was 38 µM. This compound yielded an inhibition in series [2] of 63.4%. For the same compound, the midpoint of inhibition in series [3], the IC50, lay at 26.9 µM.

For the compound `O=C(Nc1cccnc1)C1CN(c2cccc(Cl)c2)N(c2cccc(Cl)c2)C1=O` (stereo not given), the MIC in [1] was over 40 µM; in [4] it was 38 µM. In series [2], this compound showed an inhibition of 8.7%.

`O=C(NCc1ccco1)C1CN(c2cccc(Cl)c2)N(c2cccc(Cl)c2)C1=O` (stereo not given): the MIC in series [1] and in series [4] was over 40 µM throughout. Besides, the inhibition in [2] was determined as 34%.

For the compound `O=C1SCCC1NC(=O)C1CN(c2ccccc2)N(c2ccccc2)C1=O` (stereo not given), the MIC in series [1] and in series [4] was over 40 µM in each case. Besides, the inhibition result in series [2] was “inactive”.

As to `Cc1cnc(NC(=O)C2CN(c3cccc(Cl)c3)N(c3cccc(Cl)c3)C2=O)s1` (stereo not given), the MIC in series [1] is over 40 µM; in [4], 40 µM. This compound returned an inhibition in series [2] of 59.6%. The same compound had an IC50 in series [3] of 22 µM.

On to `O=C(Nc1ccccn1)C1CN(c2cccc(Cl)c2)N(c2cccc(Cl)c2)C1=O` (stereo not given), for which the minimal inhibitory concentration (MIC) in series [1] and in series [4] was over 40 µM throughout. This compound also yielded an inhibition in [2] of 30.5%.

As for `O=C(Nc1nccs1)C1CN(c2cccc(Cl)c2)N(c2cccc(Cl)c2)C1=O` (stereo not given), the MIC in [1] and in series [4] was over 40 µM throughout. Moreover, the inhibition in series [2] is 17.8%.

With `O=C(NCc1ccccn1)C1CN(c2cccc(Cl)c2)N(c2cccc(Cl)c2)C1=O` (stereo not given), the MIC in series [1] and in [4] was over 40 µM each time. In series [2], the inhibition entry is “inactive”.

Regarding `N#Cc1cnc(NC(=O)C2CN(c3ccccc3)N(c3ccccc3)C2=O)s1` (stereo not given), the MIC in series [1] and in series [4] was over 40 µM each time. The inhibition result in series [2] was “inactive”.

As to `O=C(Nc1ccsc1)C1CN(c2cccc(Cl)c2)N(c2cccc(Cl)c2)C1=O` (stereo not given), the MIC in [1] and in [4] was over 40 µM each time. In series [2], the inhibition stood at 24.7%.

Take `O=C1SCCC1NC(=O)C1CN(c2cccc(Cl)c2)N(c2cccc(Cl)c2)C1=O` (stereo not given): the results for the minimum inhibitory concentration (MIC) in series [1] and in series [4] were 11 µM and 17 µM, respectively. In addition, the inhibition in series [2] worked out at 35%.

In the case of `N#Cc1ccc(NC(=O)C2CN(c3cccc(Cl)c3)N(c3cccc(Cl)c3)C2=O)cn1` (stereo not given), the MIC in series [1] and in series [4] was over 40 µM each time. In series [2], this compound had an inhibition of 32.2%.

As to `O=C(Nc1ccc2ncsc2c1)C1CN(c2cccc(Cl)c2)N(c2cccc(Cl)c2)C1=O` (stereo not given), the MIC in series [1] and in series [4] was over 40 µM in each case. This compound gave an inhibition in series [2] of 44.7%.
